Results: patent US10626135B2, “Crystal forms of sodium-glucose co-transporter inhibitor, processes for preparation and use thereof” (CRYSTAL PHARMACEUTICAL (SUZHOU) CO., LTD., priority 2016, dated 2020)
In brackets after ≈: the same amount, converted by molar mass. Entries after “also recorded” stand apart in the source; their conditions may differ.

What was measured:
[1] = Particle size distribution assessment (laser particle size analyzer); assay type: physicochemical; conditions: for D10 / D50 / D90 / MV (average particle size based on volume): wet method, Isopar G
Excerpt: The result of particle size distribution (PSD) in the present disclosure was acquired by laser particle size analyzer with S3500 model from Microtrac Company. The Microtrac S3500 is equipped with a SDC (Sample Delivery Controller) sampling system. This experiment uses a wet method and the dispersion medium is Isopar G. The method and parameters of the laser particle size analyzer are as follows: [table] Certain amount of Form I, Form V, Form VIII and existing crystalline Form 2 were taken for particle size distribution test, and the results were shown in Table 29.

[2] = Dynamic solubility in FaSSIF (fasted state simulated intestinal fluids, pH=6.5), HPLC; assay type: physicochemical; conditions: for Solubility relative to existing crystalline Form 2: FaSSIF, 1 hour
Method: (§1) The HPLC method parameters for solubility test in the present disclosure are as follows:
(§2) Saturated solutions of Form I, Form II, Form III, Form VII and the existing crystalline Form 2 in SGF (Simulated gastric fluids) were prepared. Saturated solutions of Form II, Form III, Form VII, Form VIII and the existing crystalline Form 2 in FaSSIF (Fasted state simulated intestinal fluids, pH=6.5) were prepared. After equilibrated for 1 hour, concentrations of the saturated solutions were measured by High Performance Liquid Chromatography (HPLC).

[3] = Hygroscopicity assessment by dynamic vapor sorption (DVS); assay type: physicochemical; conditions: 25° C.; for Form change before and after DVS: XRPD
Method: Dynamic Vapor Sorption (DVS) is measured via a SMS (Surface Measurement Systems Ltd.) intrinsic DVS. Typical Parameters for DVS test are as follows: Temperature: 25° C. Gas and flow rate: N2, 200 mL/min dm/dt: 0.002%/min Relative Humidity (RH) range: 20% RH-95% RH-0% RH-95% RH Dynamic vapor sorption (DVS) was applied to test hygroscopicity of crystalline Form I with 13.8 mg of sample Form I at 25° C. The weight gains at each relative humidity were recorded in a cycle of 20%-95%-0%-95% RH. […] Dynamic vapor sorption (DVS) was applied to test hygroscopicity of Form VII with 11.5 mg of sample Form VII at 25° C. The weight gains at each relative humidity were recorded in a cycle of 0%-95%-0% RH.

[4] = Stability study: mixture of forms stirred in solvent systems with different water activity, residual solid by XRPD; assay type: physicochemical; conditions: high water activity (high humidity, ≥50% RH)
Excerpt: The mixture of existing crystalline Form 2 disclosed in CN102112483A, Form I and Form II was stirred in several solvent systems with different water activity (aw).
It should be noted that the solvent systems for different water activity (aw) include but not limit to H2O and IPA. The same conclusion could be drawn with this experiment in other solvent systems suitable for the preparation of different water activity (aw).

[5] = Dynamic solubility in SGF (simulated gastric fluids), HPLC; assay type: physicochemical; conditions: for Solubility 1 hour: Media: SGF, equilibrated for 1 hour; for Solubility relative to existing crystalline Form 2: SGF, 1 hour
Method: as §1, §2

[6] = Stability study: storage at 25° C./60% RH and 40° C./75% RH, XRPD; assay type: physicochemical; conditions: for Stability on storage: 25° C./60% RH and 40° C./75% RH for 3 months; for Solid Form after storage: 3 months
Method: Form I, Form II, Form III and Form VI were stored under different conditions of 25° C./60% RH and 40° C./75% RH for 3 months. XRPD was applied to detect the crystalline forms. The XRPD overlay of Form I, Form II, Form III and Form VI before and after stored under above two conditions were shown in FIG. 44, FIG. 45, FIG. 46 and FIG. 47, respectively.

[7] = Morphology assessment by polarized light microscopy; assay type: physicochemical
Method: The existing crystalline Form 2 and Form I in the present disclosure were tested by polarized light microscopy. The PLM results of the Form 2 and Form I were shown in FIG. 48 and FIG. 49, respectively.

[8] = Mechanical stability assessment: manual grinding, XRPD; assay type: physicochemical; conditions: ground manually for 5 minutes in mortar
Method: Solid sample of Form I, Form VI and the existing crystalline Form 2 were ground manually for 5 minutes in mortar. XRPD was applied to detect the crystalline form.

[9] = test system: people with type 2 diabetes; conditions: Phase 2, type 2 diabetes, including those with renal impairment; cited from earlier work
[10] = test system: type 1 diabetics; conditions: Phase 2, type 1 diabetics, compared with placebo; cited from earlier work
[11] = Table 27, head prints Media:SGF, text says FaSSIF pH=6.5, equilibrated for 1 hour

Row | SMILES | Particle size distribution (description) [1] | D10 [1] [μm] | D50 [1] [μm] | D90 [1] [μm] | MV (average particle size based on volume) [1] [μm] | Solubility relative to existing crystalline Form 2 [2] [times] | Solubility 1 hour [2, 11] [µg/mL] | Solubility 1 hour [5] [µg/mL] | Stability on storage [6] | Solid Form after storage ([6]; 25° C./60% RH) | Solid Form after storage ([6]; 40° C./75% RH) | Weight gain under 80% RH ([3]; cycle 20%-95%-0%-95% RH) [%] | Form change before and after DVS ([3]; cycle 20%-95%-0%-95% RH) | Crystal shape (PLM) [7] | Crystallinity [8] | Final form [8] | Mechanical stability [8] | Solubility relative to existing crystalline Form 2 [5] [times] | further results
1 | CCOc1ccc(Cc2cc([C@@H]3O[C@H](SC)[C@@H](O)[C@H](O)[C@H]3O)ccc2Cl)cc1 [Form V, (2S,3R,4R,5S,6R)-2-(4-chloro-3-(4-ethoxybenzyl)phenyl)-6-(methylthio)tetrahydro-2H-pyran-3,4,5-triol] | narrow and normal | 4.38 | 18.81 | 72.98 | 32.70 |  |  |  |  |  |  |  |  |  |  |  |  |  | 
2 | CCOc1ccc(Cc2cc([C@@H]3O[C@H](SC)[C@@H](O)[C@H](O)[C@H]3O)ccc2Cl)cc1 [Form VIII, (2S,3R,4R,5S,6R)-2-(4-chloro-3-(4-ethoxybenzyl)phenyl)-6-(methylthio)tetrahydro-2H-pyran-3,4,5-triol] | narrow and normal | 7.30 | 36.60 | 112.4 | 51.93 | 1.4 | 180 (≈ 424 µM) |  |  |  |  |  |  |  |  |  |  |  | Weight gain under 80% RH ([3]; cycle 0%-95%-0% RH): 0.60%; Form change before and after DVS ([3]; cycle 0%-95%-0% RH): substantially unchanged; also recorded: No form change
3 | CCOc1ccc(Cc2cc([C@@H]3O[C@H](SC)[C@@H](O)[C@H](O)[C@H]3O)ccc2Cl)cc1 [Form II, (2S,3R,4R,5S,6R)-2-(4-chloro-3-(4-ethoxybenzyl)phenyl)-6-(methylthio)tetrahydro-2H-pyran-3,4,5-triol] |  |  |  |  |  |  |  | 80 (≈ 188 µM) | good stability | Form II (the middle | Form II (the bottom | 2.46 | substantially unchanged; also recorded: No form change |  |  |  |  |  | Stability in high water activity environment [4]: more stable than Form 2; solubility at 1 h ([2]; fasted state simulated intestinal fluid (FaSSIF), pH 6.5, fassif, thermodynamic from solid, Table 27, head prints Media:SGF, text says FaSSIF pH=6.5, equilibrated for 1 hour): 150 µg/mL (≈ 353 µM)
4 | CCOc1ccc(Cc2cc([C@@H]3O[C@H](SC)[C@@H](O)[C@H](O)[C@H]3O)ccc2Cl)cc1 [Form I, (2S,3R,4R,5S,6R)-2-(4-chloro-3-(4-ethoxybenzyl)phenyl)-6-(methylthio)tetrahydro-2H-pyran-3,4,5-triol] | narrow and normal | 3.34 | 8.97 | 31.63 | 14.48 |  |  | 100 (≈ 235 µM) | good stability | Form I (the middle | Form I (the bottom | 3.55 | substantially unchanged; also recorded: No form change | rod-like shape | Decreased (Slightly | no crystalline form change; also recorded: Form I | better mechanical stability | 1.7 | Stability in high water activity environment [4]: more stable than Form 2
5 | CCOc1ccc(Cc2cc([C@@H]3O[C@H](SC)[C@@H](O)[C@H](O)[C@H]3O)ccc2Cl)cc1 [Form 2, (2S,3R,4R,5S,6R)-2-(4-chloro-3-(4-ethoxybenzyl)phenyl)-6-(methylthio)tetrahydro-2H-pyran-3,4,5-triol, reference compound] | wide and bimodal | 2.32 | 45.00 | 144.4 | 60.43 |  | 130 (≈ 306 µM) | 60 (≈ 141 µM) |  |  |  |  |  | needle-like shape | Decreased (Mainly | Form 2 | poor mechanical stability |  | 
6 | CCOc1ccc(Cc2cc([C@@H]3O[C@H](SC)[C@@H](O)[C@H](O)[C@H]3O)ccc2Cl)cc1 [Form III, (2S,3R,4R,5S,6R)-2-(4-chloro-3-(4-ethoxybenzyl)phenyl)-6-(methylthio)tetrahydro-2H-pyran-3,4,5-triol] |  |  |  |  |  | 1.4 | 180 (≈ 424 µM) | 130 (≈ 306 µM) | good stability | Form III (the middle | Form III (the bottom | 0.13 | substantially unchanged; also recorded: No form change |  |  |  |  | 2.2 | 
7 | CCOc1ccc(Cc2cc([C@@H]3O[C@H](SC)[C@@H](O)[C@H](O)[C@H]3O)ccc2Cl)cc1 [Form VII, (2S,3R,4R,5S,6R)-2-(4-chloro-3-(4-ethoxybenzyl)phenyl)-6-(methylthio)tetrahydro-2H-pyran-3,4,5-triol] |  |  |  |  |  | 1.5 | 200 (≈ 471 µM) | 150 (≈ 353 µM) |  |  |  |  |  | irregular massive shape |  |  |  | 2.5 | Weight gain under 80% RH ([3]; cycle 0%-95%-0% RH): 1.08%; Form change before and after DVS ([3]; cycle 0%-95%-0% RH): substantially unchanged; also recorded: No form change
8 | CCOc1ccc(Cc2cc([C@@H]3O[C@H](SC)[C@@H](O)[C@H](O)[C@H]3O)ccc2Cl)cc1 [Sotagliflozin, (2S,3R,4R,5S,6R)-2-(4-chloro-3-(4-ethoxybenzyl)phenyl)-6-(methylthio)tetrahydro-2H-pyran-3,4,5-triol] |  |  |  |  |  |  |  |  |  |  |  |  |  |  |  |  |  |  | Blood pressure [9]: blood pressure improvements; Blood sugar [9]: lowering of blood sugar; Weight [9]: weight loss; Blood sugar [10]: reduction of blood sugar; Glycaemic variability [10]: improvement in glycaemic variability; Meal-time insulin dose [10]: reduced meal-time insulin dose
9 | CCOc1ccc(Cc2cc([C@@H]3O[C@H](SC)[C@@H](O)[C@H](O)[C@H]3O)ccc2Cl)cc1 [Form VI, (2S,3R,4R,5S,6R)-2-(4-chloro-3-(4-ethoxybenzyl)phenyl)-6-(methylthio)tetrahydro-2H-pyran-3,4,5-triol] |  |  |  |  |  |  |  |  | good stability | Form VI (the middle | Form VI (the bottom | 1.80 | substantially unchanged; also recorded: No form change |  | Decreased (Slightly | no crystalline form change; also recorded: Form VI | better mechanical stability |  | 
